The values below come from ChEMBL document CHEMBL1131630, “(Z,Z)-2,7-Bis(4-amidinobenzylidene)cycloheptan-1-one: identification of a highly active inhibitor of blood coagulation factor Xa” (J Med Chem, 1998).

The target of one assay is Coagulation factor X (Homo sapiens, UniProt P00742). In words: Compound (isomer) was tested in the absence of light for inhibitory activity against Human Coagulation factor X.
The next assay addresses T1, Serine protease 1 (Bos taurus, UniProt P00760).
T1 sequence (P00760 whole entry): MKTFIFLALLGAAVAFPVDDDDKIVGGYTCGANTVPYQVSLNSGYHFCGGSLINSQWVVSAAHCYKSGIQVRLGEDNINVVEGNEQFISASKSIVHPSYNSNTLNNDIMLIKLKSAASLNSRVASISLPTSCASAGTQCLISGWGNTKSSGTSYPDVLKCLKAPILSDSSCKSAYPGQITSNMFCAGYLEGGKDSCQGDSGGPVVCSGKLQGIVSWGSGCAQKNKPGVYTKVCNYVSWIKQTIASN
The assay is described as follows: Compound (isomer) was tested in the absence of light for inhibitory activity against trypsin.

In another assay the target is Prothrombin (Homo sapiens, UniProt P00734). In words: Compound (isomer) was tested in the absence of light for inhibitory activity against thrombin.

SMILES strings stand for the structures.

Chain of Coagulation factor X (P00742 41-179 limits assumed): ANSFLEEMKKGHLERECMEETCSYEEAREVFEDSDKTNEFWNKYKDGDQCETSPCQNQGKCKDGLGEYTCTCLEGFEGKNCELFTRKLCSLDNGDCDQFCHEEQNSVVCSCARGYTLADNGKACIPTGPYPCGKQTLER
Chain of Coagulation factor X (P00742 235-488 limits assumed): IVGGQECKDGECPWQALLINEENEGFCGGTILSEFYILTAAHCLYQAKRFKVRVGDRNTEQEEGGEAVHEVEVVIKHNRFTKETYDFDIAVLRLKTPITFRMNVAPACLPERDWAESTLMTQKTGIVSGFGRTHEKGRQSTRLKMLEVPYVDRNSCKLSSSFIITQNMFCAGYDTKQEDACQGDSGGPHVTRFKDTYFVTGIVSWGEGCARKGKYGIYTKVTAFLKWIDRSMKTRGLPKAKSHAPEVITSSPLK

What is called Ki is the dissociation constant of the complex between target and ligand, obtained from inhibition or displacement. A low value points to higher affinity. Turning to `N=C(N)c1ccc(/C=C2\CCCC/C(=C\c3ccc(C(=N)N)cc3)C2=O)cc1`, the values for the inhibition constant (Ki) on Coagulation factor X and on Serine protease 1 were 17000 nM and 280 nM, respectively.

On to `N=C(N)c1ccc(/C=C2/CCCC/C(=C\c3ccc(C(=N)N)cc3)C2=O)cc1`, for which the Ki on Serine protease 1 is 29 nM; on Prothrombin, 130 nM.
